Source: US8410144B2, “Substituted indolo-pyridinone compounds” (ArQule, Inc., priority 2009, dated 2013)

How the values were obtained:
MDA-MB-231 = test: MTS assay, MDA-MB-231 cells; assay type: cell-based; settings: Homo sapiens, 72 hours, read-out: MDA-MB-231, MTS cell kill % inhibition
Summary of the method: (§1)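 First, seed 3000 cells per well in low-serum (1% FBS) DMEM and culture 18 h. Next, add compounds prepared at 300× in DMSO and diluted 1:40 in DMEM; incubate 72 h. Finally, add MTS/PMS for 4 h and measure absorbance at 492 nm.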

DLD-1 = test: MTS assay, DLD-1 cells; assay type: cell-based; settings: Homo sapiens, 72 hours, read-out: DLD-1, MTS cell kill % inhibition
Summary of the method: as §1

NCI-H1299 = test: MTS assay, NCI-H1299 cells; assay type: cell-based; settings: Homo sapiens, 72 hours, read-out: NCI-H1299, MTS cell kill % inhibition
Summary of the method: as §1

IGF-1R = IGF-1R (Homo sapiens, UniProt P08069); test: IGFR1 activity assay (ELISA); assay type: biochemical; settings: read-out: IGF-1R, PCT INH (30 μM), ELISA
Summary of the method: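 IGF1R (0.33 ng/μL final) phosphorylating Pyk-2 (0.05 ng/μL final) in buffer with 12.5 μM ATP, 10 mM MgCl2, 1 h room temperature. Product captured on streptavidin plates, detected with anti-phosphotyrosine and alkaline phosphatase secondary antibody, Attophos fluorescent readout.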

KATO III = test: MTS assay, KATO III cells; assay type: cell-based; settings: Homo sapiens, 72 hours, read-out: KATO III, MTS cell kill % inhibition
Summary of the method: as §1

Sequence of IGF-1R (P08069 31-1367): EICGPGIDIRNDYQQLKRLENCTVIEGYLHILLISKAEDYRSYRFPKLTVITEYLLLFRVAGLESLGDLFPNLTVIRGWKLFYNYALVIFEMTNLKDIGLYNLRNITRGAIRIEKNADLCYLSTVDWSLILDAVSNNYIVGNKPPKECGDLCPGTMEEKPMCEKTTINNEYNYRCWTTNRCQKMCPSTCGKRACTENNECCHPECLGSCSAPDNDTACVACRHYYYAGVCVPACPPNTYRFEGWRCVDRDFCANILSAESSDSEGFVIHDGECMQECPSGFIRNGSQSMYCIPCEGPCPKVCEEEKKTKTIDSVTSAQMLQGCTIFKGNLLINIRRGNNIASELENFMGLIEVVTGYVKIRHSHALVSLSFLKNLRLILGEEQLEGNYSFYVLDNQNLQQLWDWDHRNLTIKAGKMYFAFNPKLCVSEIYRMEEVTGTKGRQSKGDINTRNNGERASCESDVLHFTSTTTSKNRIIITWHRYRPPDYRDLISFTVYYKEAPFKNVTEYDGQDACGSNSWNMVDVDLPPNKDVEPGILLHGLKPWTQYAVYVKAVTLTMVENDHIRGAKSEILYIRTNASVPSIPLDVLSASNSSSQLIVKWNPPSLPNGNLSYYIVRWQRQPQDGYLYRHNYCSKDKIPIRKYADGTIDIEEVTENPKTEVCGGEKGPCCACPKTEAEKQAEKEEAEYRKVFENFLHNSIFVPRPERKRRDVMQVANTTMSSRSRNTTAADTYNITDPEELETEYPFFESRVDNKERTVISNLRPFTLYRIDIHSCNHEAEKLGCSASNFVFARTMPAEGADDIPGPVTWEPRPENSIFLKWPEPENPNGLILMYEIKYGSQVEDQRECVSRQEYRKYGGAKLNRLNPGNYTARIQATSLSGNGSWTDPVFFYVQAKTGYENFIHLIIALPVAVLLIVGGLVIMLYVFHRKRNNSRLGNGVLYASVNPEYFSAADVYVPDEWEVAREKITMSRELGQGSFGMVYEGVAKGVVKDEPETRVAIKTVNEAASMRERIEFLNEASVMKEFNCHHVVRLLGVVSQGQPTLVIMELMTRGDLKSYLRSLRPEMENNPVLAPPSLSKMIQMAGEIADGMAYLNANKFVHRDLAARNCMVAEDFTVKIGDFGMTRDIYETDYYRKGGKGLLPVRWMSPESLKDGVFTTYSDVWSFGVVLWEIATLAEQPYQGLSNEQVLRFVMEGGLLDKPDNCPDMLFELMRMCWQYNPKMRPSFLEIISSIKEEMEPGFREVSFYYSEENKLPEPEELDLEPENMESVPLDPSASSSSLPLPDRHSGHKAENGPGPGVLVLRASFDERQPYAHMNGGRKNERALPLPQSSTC

| melting point [°C] | inhibition at 30 µM (IGF-1R) [%] | SMILES | inhibition at 10 µM (MDA-MB-231) [%] | inhibition at 10 µM (DLD-1) [%] | inhibition at 10 µM (NCI-H1299) [%] | inhibition at 10 µM (KATO III) [%] |
| --- | --- | --- | --- | --- | --- | --- |
| 120 to 122 | 80 to 100 | Cc1cccc(-c2c(-c3ccc[nH]c3=O)[nH]c3ccc(C(=O)NCCCN4CCOCC4)cc23)c1 [Compound 78, 3-(3-methylphenyl)-N-(3-morpholin-4-ylpropyl)-2-(2-oxo-1,2-dihydropyridin-3-yl)-1H-indole-5-carboxamide] | < 50 | 50 to 79 | 50 to 79 | < 50 |
| 181 to 189 | 50 to 79 | O=C(NCCCN1CCOCC1)c1ccc2[nH]c(-c3ccc[nH]c3=O)c(-c3cc4cccc5c4n3CCC5)c2c1 [Compound 8, 3-(5,6-dihydro-4H-pyrrolo[3,2,1-ij]quinolin-2-yl)-N-(3-morpholin-4-ylpropyl)-2-(2-oxo-1,2-dihydropyridin-3-yl)-1H-indole-5-carboxamide] | 80 to 100 | 80 to 100 | 80 to 100 | 80 to 100 |
| 143 to 145 | 80 to 100 | CCc1ccc(-c2c(-c3ccc[nH]c3=O)[nH]c3ccc(C(=O)NCCCN4CCOCC4)cc23)cc1 [Compound 65, 3-(4-ethylphenyl)-N-(3-morpholin-4-ylpropyl)-2-(2-oxo-1,2-dihydropyridin-3-yl)-1H-indole-5-carboxamide] | 50 to 79 | 80 to 100 | 80 to 100 | 80 to 100 |
| 152 to 154 | 80 to 100 | Cc1ccc(-c2c(-c3ccc[nH]c3=O)[nH]c3ccc(C(=O)NCCCN4CCOCC4)cc23)cc1 [Compound 72, 3-(4-methylphenyl)-N-(3-morpholin-4-ylpropyl)-2-(2-oxo-1,2-dihydropyridin-3-yl)-1H-indole-5-carboxamide] | < 50 | 50 to 79 | 80 to 100 | 80 to 100 |
| 238 to 244 | 80 to 100 | O=C(NCCCN1CCOCC1)c1ccc2[nH]c(-c3ccc[nH]c3=O)c(-c3ccccc3)c2c1 [Compound 1, N-(3-morpholin-4-ylpropyl)-2-(2-oxo-1,2-dihydropyridin-3-yl)-3-phenyl-1H-indole-5-carboxamide] | 80 to 100 | 80 to 100 | 80 to 100 | 80 to 100 |
| 121 to 123 | 80 to 100 | O=C(NCCCN1CCOCC1)c1ccc2[nH]c(-c3ccc[nH]c3=O)c(-c3ccc(Oc4ccccc4)cc3)c2c1 [Compound 57, N-(3-morpholin-4-ylpropyl)-2-(2-oxo-1,2-dihydropyridin-3-yl)-3-(4-phenoxyphenyl)-1H-indole-5-carboxamide] | 80 to 100 | 80 to 100 | 80 to 100 | 80 to 100 |
| 140 to 143 | 80 to 100 | CC(C)Oc1ccc(-c2c(-c3ccc[nH]c3=O)[nH]c3ccc(C(=O)NCCCN4CCOCC4)cc23)cc1 [Compound 66, 3-(4-isopropoxyphenyl)-N-(3-morpholin-4-ylpropyl)-2-(2-oxo-1,2-dihydropyridin-3-yl)-1H-indole-5-carboxamide] | 80 to 100 | 50 to 79 | 80 to 100 | 80 to 100 |

Continued, molecule first:

| SMILES | melting point [°C] | inhibition at 30 µM (IGF-1R) [%] | inhibition at 10 µM (MDA-MB-231) [%] | inhibition at 10 µM (DLD-1) [%] | inhibition at 10 µM (NCI-H1299) [%] | inhibition at 10 µM (KATO III) [%] |
| --- | --- | --- | --- | --- | --- | --- |
| CN(C)CCCN(C)C(=O)c1ccc2[nH]c(-c3ccc[nH]c3=O)c(-c3ccccc3)c2c1 [Compound 27, N-[3-(dimethylamino)propyl]-N-methyl-2-(2-oxo-1,2-dihydropyridin-3-yl)-3-phenyl-1H-indole-5-carboxamide] | 125 to 128 | 80 to 100 | 50 to 79 | 50 to 79 | 50 to 79 | 80 to 100 |
| O=C(c1ccc2[nH]c(-c3ccc[nH]c3=O)c(-c3ccccc3)c2c1)N1CCCCC1 [Compound 17, 3-[3-phenyl-5-(piperidin-1-ylcarbonyl)-1H-indol-2-yl]pyridin-2(1H)-one] | 182 to 186 | 80 to 100 | < 50 | 50 to 79 | 80 to 100 | 80 to 100 |
| Cc1ccccc1N(C)C(=O)c1ccc2[nH]c(-c3ccc[nH]c3=O)c(-c3ccccc3)c2c1 [Compound 16, N-methyl-N-(2-methylphenyl)-2-(2-oxo-1,2-dihydropyridin-3-yl)-3-phenyl-1H-indole-5-carboxamide] | 216 to 220 | 80 to 100 | < 50 | 50 to 79 | 50 to 79 | 80 to 100 |
| CN(C)CCCNC(=O)c1ccc2[nH]c(-c3ccc[nH]c3=O)c(-c3ccccc3)c2c1 [Compound 30, N-[3-(dimethylamino)propyl]-2-(2-oxo-1,2-dihydropyridin-3-yl)-3-phenyl-1H-indole-5-carboxamide] | 143 to 145 | 80 to 100 | 80 to 100 | 80 to 100 | 80 to 100 | 80 to 100 |
| O=C(Nc1cccc(Cl)c1)c1ccc2[nH]c(-c3ccc[nH]c3=O)c(-c3ccccc3)c2c1 [Compound 22, N-(3-chlorophenyl)-2-(2-oxo-1,2-dihydropyridin-3-yl)-3-phenyl-1H-indole-5-carboxamide] | 244 to 250 | 50 to 79 | 50 to 79 | 80 to 100 | 50 to 79 | 80 to 100 |
| O=C(NCCOc1ccccc1)c1ccc2[nH]c(-c3ccc[nH]c3=O)c(-c3ccc(-c4ccccc4)cc3)c2c1 [Compound 51, 3-biphenyl-4-yl-2-(2-oxo-1,2-dihydropyridin-3-yl)-N-(2-phenoxyethyl)-1H-indole-5-carboxamide] | 147 to 153 | < 50 | 50 to 79 | < 50 | < 50 | < 50 |
| COC(=O)c1ccc2[nH]c(-c3ccc[nH]c3=O)c(-c3ccc(-c4ccccc4)cc3)c2c1 [Compound 9, methyl 3-biphenyl-4-yl-2-(2-oxo-1,2-dihydropyridin-3-yl)-1H-indole-5-carboxylate] | > 300 | < 50 | < 50 | < 50 | < 50 | < 50 |
| O=C(c1ccc2[nH]c(-c3ccc[nH]c3=O)c(-c3ccc(-c4ccccc4)cc3)c2c1)N1CCN(c2ccccc2F)CC1 [Compound 36, 3-(3-biphenyl-4-yl-5-{[4-(2-fluorophenyl)piperazin-1-yl]carbonyl) -1H-indol-2-yl)pyridin-2(1H)-one] | 137 to 144 | < 50 | 50 to 79 | < 50 | < 50 | < 50 |
| O=C(Nc1ccccc1F)c1ccc2[nH]c(-c3ccc[nH]c3=O)c(-c3ccccc3)c2c1 [Compound 15, N-(2-fluorophenyl)-2-(2-oxo-1,2-dihydropyridin-3-yl)-3-phenyl-1H-indole-5-carboxamide] | > 300 | 80 to 100 | 50 to 79 | 80 to 100 | 50 to 79 | 80 to 100 |
| O=c1[nH]cccc1-c1[nH]c2ccccc2c1-c1ccccc1 [Compound 84, 3-(3-phenyl-1H-indol-2-yl)pyridin-2(1H)-one] | 240 to 242 | 80 to 100 | 50 to 79 | 50 to 79 | 50 to 79 | 80 to 100 |
| CN(C)CCCNCc1ccc2[nH]c(-c3ccc[nH]c3=O)c(-c3ccc(-c4ccccc4)cc3)c2c1 [Compound 54, 3-[3-biphenyl-4-yl-5-({[3-(dimethylamino)propyl]amino}methyl)-1H-indol-2-yl]pyridin-2(1H)-one] | 160 to 166 | < 50 | 50 to 79 | 50 to 79 | < 50 | < 50 |
| O=C(Nc1ccccc1Cl)c1ccc2[nH]c(-c3ccc[nH]c3=O)c(-c3ccccc3)c2c1 [Compound 12, N-(2-chlorophenyl)-2-(2-oxo-1,2-dihydropyridin-3-yl)-3-phenyl-1H-indole-5-carboxamide] | > 300 | < 50 | 50 to 79 | 80 to 100 | 80 to 100 | 80 to 100 |
| O=C(NCc1ccccn1)c1ccc2[nH]c(-c3ccc[nH]c3=O)c(-c3ccc(-c4ccccc4)cc3)c2c1 [Compound 42, 3-biphenyl-4-yl-2-(2-oxo-1,2-dihydropyridin-3-yl)-N-(pyridin-2-ylmethyl)-1H-indole-5-carboxamide] | 123 to 127 | < 50 | 80 to 100 | 80 to 100 | 80 to 100 | 80 to 100 |
